# Experiments:
# HCRTR1 = biological target: T1, HCRTR1 (Homo sapiens, UniProt O43613); test: GPCR panel (control), Arrestin, CHO-K1; type: cell-based; settings: reference agonist
# T1 construct: expressed in transfected cells; host or cells: CHO-K1
# GPR120 = GPR120 (Homo sapiens, UniProt Q5NUL3); test: GPCR panel (control), Arrestin, CHO-K1; type: cell-based; settings: reference agonist
# HRH2 = HRH2 (Homo sapiens, UniProt P25021); settings: reference agonist, HRH2, CHO-K1, Arrestin
# Sequence of HRH2 (P25021 whole entry): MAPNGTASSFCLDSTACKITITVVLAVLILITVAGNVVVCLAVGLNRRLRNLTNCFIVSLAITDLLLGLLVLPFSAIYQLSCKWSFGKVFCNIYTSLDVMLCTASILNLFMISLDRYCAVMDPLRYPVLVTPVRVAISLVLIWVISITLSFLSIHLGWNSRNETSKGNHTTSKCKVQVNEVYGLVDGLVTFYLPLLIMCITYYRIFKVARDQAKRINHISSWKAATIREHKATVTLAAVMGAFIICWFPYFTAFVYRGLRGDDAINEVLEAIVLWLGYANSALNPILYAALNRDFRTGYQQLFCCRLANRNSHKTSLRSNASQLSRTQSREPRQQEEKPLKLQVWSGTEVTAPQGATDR
# T1 sequence (O43613 whole entry): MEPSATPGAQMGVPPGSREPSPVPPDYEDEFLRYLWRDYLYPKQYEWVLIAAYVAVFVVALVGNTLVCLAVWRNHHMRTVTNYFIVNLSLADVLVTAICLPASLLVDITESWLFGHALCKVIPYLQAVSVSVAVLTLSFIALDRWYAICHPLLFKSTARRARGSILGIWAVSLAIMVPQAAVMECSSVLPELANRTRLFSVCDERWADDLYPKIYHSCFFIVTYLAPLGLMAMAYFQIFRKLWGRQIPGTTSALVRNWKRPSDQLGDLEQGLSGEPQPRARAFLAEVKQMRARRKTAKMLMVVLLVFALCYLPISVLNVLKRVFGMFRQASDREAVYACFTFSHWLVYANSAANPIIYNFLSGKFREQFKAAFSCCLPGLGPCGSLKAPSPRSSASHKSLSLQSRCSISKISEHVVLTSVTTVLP
# Sequence of GPR120 (Q5NUL3 whole entry): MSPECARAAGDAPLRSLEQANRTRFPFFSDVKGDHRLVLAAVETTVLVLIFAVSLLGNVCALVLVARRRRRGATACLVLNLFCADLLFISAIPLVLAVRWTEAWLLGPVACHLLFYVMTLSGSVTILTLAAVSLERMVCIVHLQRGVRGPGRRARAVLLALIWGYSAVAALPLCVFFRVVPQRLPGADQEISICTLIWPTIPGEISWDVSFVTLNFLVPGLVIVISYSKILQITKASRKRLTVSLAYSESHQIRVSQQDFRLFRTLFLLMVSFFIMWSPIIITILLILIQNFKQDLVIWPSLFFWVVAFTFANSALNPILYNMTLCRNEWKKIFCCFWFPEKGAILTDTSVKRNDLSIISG
compound,measurement,setting,value
Orexin A,EC80,HCRTR1,0.52 µM
O=C(O)CCc1ccc(NCc2cccc(Oc3ccccc3)c2)cc1 [GW9508],EC80,GPR120,570 µM
NCCc1c[nH]cn1 [Histamine],EC80,HRH2,110 µM
